Reference: patent US20180015101A1, “COMPOSITIONS AND METHODS FOR ANTIGEN-SPECIFIC TOLERANCE” (INSERM (INSTITUT NATIONAL DE LA SANTÉ ET DE LA RECHERCHE …, priority 2014, published 2018)

Assays:
HO-1^+ MoDCs = assay: MoDC recruitment in draining LN after intradermal injection; assay type: in vivo; details: given as dermal migration inhibitor in CoPP-injected mice
Procedure: Isolation of murine APCs and co-culture with autoreactive CTLs: For MHC-II^+ and F4/80^+ cells isolation, skin-draining LNs were removed 24 hours after intradermal injection in the back or in the ear. Single-cell suspensions were prepared by enzymatic lymph node disaggregation with collagenase D (Sigma-Aldricht). Cells were stained with anti-MHC-II-FITC (clone AF6-120.1, BD pharmingen) or anti-F4/80-PE (clone BM8, eBioscience) monoclonal antibodies as primary labeling reagent and respectively with anti-FITC or anti-PE microbeads (Miltenyi) as secondary reagent. After magnetic separation, we checked that purity was >82% for CD11b^+CD11c^lowLy6C^highF4/80^+ cells in CoPP-OVA immunized mice. These cells were co-cultured with autoreactive CTLs (respectively 1:1 and 1:5 APC to CTL ratio) overnight for velocity measurement and transwell migration assay. […]

HO-1 [1] = assay: HO-1 expression in MHC-II+ cells of draining lymph nodes after intradermal injection (FACS); assay type: in vivo, mice
Procedure: Isolation of murine APCs and co-culture with autoreactive CTLs: For MHC-II^+ and F4/80^+ cells isolation, skin-draining LNs were removed 24 hours after intradermal injection in the back or in the ear. Single-cell suspensions were prepared by enzymatic lymph node disaggregation with collagenase D (Sigma-Aldricht). Cells were stained with anti-MHC-II-FITC (clone AF6-120.1, BD pharmingen) or anti-F4/80-PE (clone BM8, eBioscience) monoclonal antibodies as primary labeling reagent and respectively with anti-FITC or anti-PE microbeads (Miltenyi) as secondary reagent. After magnetic separation, we checked that purity was >82% for CD11b^+CD11c^lowLy6C^highF4/80^+ cells in CoPP-OVA immunized mice. These cells were co-cultured with autoreactive CTLs (respectively 1:1 and 1:5 APC to CTL ratio) overnight for velocity measurement and transwell migration assay.
(§1) Intradermal immunization of mice and diabetes induction: Eight to ten week-old Rip-OVAhigh mice received two intradermal injections in the back with 70 μg of CoPP (Livchem) prepared as described and 20 μg of endofree ovalbumin (Hyglos) in 10 μl. One hundred and forty micrograms of MnPP (Livchem) prepared as described (18) was added to the preparation for HO-1-inhibition experiments. Forty micrograms of Alexa Fluor® 488 ovalbumin (Molecular Probes) has been used for phagocytosis assay. For diabetes induction, mice were injected i.v. the following day with 0.5×10^5 autoreactive cytotoxic OT-I CD8^+ T cells (purity >95%) previously co-cultured or not with MHC-II^+ or F4/80^+ cells during 4 hours.
(§2) Flow Cytometry: Single-cells suspensions of spleen and lymph nodes were stained with anti-CD8 (clone 53-6.7), anti-CD45.1 (clone A20), anti-CD49b/α2 (clone DX5), anti-CD49d/α4 (clone RI-2), anti-ITGAE/αE (clone M290), anti-CD29/β1-integrin (clone Ha2/5), anti-CD18/β2-integrin (clone C71/16), anti-CD61/β3-integrin (clone 2C9.G2), anti-CD62E (clone 10E9.6), anti-CD62L (clone Mel14), anti-PSGL1 (clone 2PH1), anti-ICAM-1 (clone 3E2), anti-VCAM-1 (clone 429), anti-CD183/CXCR3 (clone CXCR3-173), anti-CD195/CCR5 (clone C34-3448), anti-GITR (clone DTA-1), anti-PD-1 (clone J43), anti-CD28 (clone 37.51), anti-CD38 (clone 90), anti-CD69 (clone H1.2F3), anti-CD44 (clone IM7), anti-CD107b (clone ABL-93) antibodies. All antibodies are from BD Biosciences. Intracellular staining of HO-1 using BD cytofix/cytoperm kit following manufacturers' recommendations were performed with anti-HO-1 antibody (clone HO-1-2, abcam) as primary labeling reagent and with anti-anti-IgG1 (clone MOPC-21) monoclonal antibody conjugated to a fluorochrome as secondary labeling reagent.

Rip-OVA^high mice = assay: Diabetes induction in Rip-OVAhigh mice by transfer of autoreactive CTLs after immunization; assay type: in vivo; details: intradermal injection one day before CTL transfer
Procedure: as §1, with “hours. […]” for “hours.”
Histological analysis: For evaluation of insulitis, pancreata were snap-frozen and cryosections (8 μm thick) were acetone-fixed. Sections were stained with H&E (Thermo Electron Corp.), and the degree of insulitis was evaluated microscopically.
Light-sheet-based fluorescent microscopy analysis: Animals were perfused with PFA 4% and washed with PBS. […] For GFP fluorescence imaging, we used a 525/50 band pass filter on the turret. […] The images stacks are analyzed using ImageJ software (Rasband, W. S., ImageJ, U. S. National Institutes of Health, Bethesda, Md., USA, http://imagej.nih.gov/ij/, 1997-2012).

[2] = system: Human monocytic THP-1 cells; assay: HO-1 expression in THP-1 cells after HO-1 inducer treatment; assay type: cell-based; details: 16 hours in vitro
Procedure: Human THP-1 monocytic cell line and co-culture with CD8^+ T cells clones: THP-I cells were cultured in RPMI 1640 (Gibco) supplemented with 10% fetal bovine serum (Eurobio), 1% glutamine (Gibco), 50 IU/mL penicillin 50 IU/mL streptomycin (Gibco) and 200 nM PMA (Sigma-Aldrich) under standard conditions as previously described (36).
as §2

C57BL/6 mice = assay: Experimental Autoimmune Encephalomyelitis (EAE), prophylactic and curative intradermal treatment; assay type: in vivo; details: for protection against EAE (clinical score): i.d., low dose CoPP 0.2 mg/mouse, preventive or curative settings
Procedure: Experimental Autoimmune Encephalomyelitis (EAE) induction: Briefly, C57BL/6 were immunized by a subcutaneous injection of emulsified complete freund adjuvant (CFA, sigma aldrich) complemented with mycobacterium tuberculosis (400 μg, BD) and MOG35-55 peptide (200 μg, genecust). Pertussis toxin is injected (200 ng i.v, VWR) at the time of immunization and two days later. Clinical signs of EAE were evaluated daily and scored as follows: 0, normal; 1, limp tail; 2, partial paralysis of the hind limbs; 3, complete paralysis of the hind limbs; 4, hind-limb paralysis and forelimb weakness; 5, moribund or deceased
[…] Same injections were repeated twice at three days interval. For curative treatment, mice were treated with one injection in each ear at the EAE onset (i.e., mean clinical score, 0.72±0.1) with the same quantity than in prophylactic treatment. Same injections were repeated twice at three days interval after EAE onset.

NOD mice = details: administered systemically before disease onset; cited from earlier work
Human PBMC = assay: HO-1 expression in human PBMC after in vitro hemin treatment; assay type: cell-based; details: 4 hours in vitro
Procedure: Human and non-human primate PBMC: Human PBMCs were obtained at the Etablissement Français du Sang in Nantes from blood of healthy donors. After Ficoll-Paque density gradient centrifugation (GE Healthcare), PBMC were cultured in RPMI 1640 (Gibco) supplemented with 10% fetal bovine serum (Eurobio), 1% glutamine (Gibco), 50 IU/mL penicillin 50 IU/mL streptomycin (Gibco) in presence or not of CoPP or hemin during 4 hours.
as §2, with “Intracellular staining of HO-1 using BD cytofix/cytoperm kit following manufacturers' recommendations were performed with anti-HO-1 antibody (clone HO-1-2, abcam) as primary labeling reagent and with anti-anti-IgG1 (clone MOPC-21) monoclonal antibody conjugated to a fluorochrome as secondary labeling reagent.” left out

HO-1 [3] = assay: HO-1 induction in lymph nodes of baboons after intradermal Normosang; assay type: in vivo, Baboons (Papio anubis); details: 24 h after intradermal 6.25, 12.5 or 25 mg
Procedure: Non-Human primates: Baboons (Papio anubis, from the CNRS Primatology Center, Rousset, France) were negative for all quarantine tests. Animals were housed at the large animal facility of our laboratory following the recommendations of the Institutional Ethical Guidelines of the Institut National de la Santé Et de la Recherche Médicale, France. All experiments were performed under general anaesthesia with Zoletil (Virbac, Carron, France). Three Baboons were injected intradermally in the inguinal fold with respectively 6.25 mg (500 μL), 12.5 mg (500 μL) or 25 mg (1 mL) of clinical hemin (Normosang®). A non-treated baboon has served as control. Inguinal lymph nodes were surgically removed 24 hours after intradermal injection. Single-cell suspensions for flow cytometry analysis were prepared by enzymatic lymph node disaggregation with Collagenase D (Sigma-Aldricht).
Intradermal immunization with Normosang®: Three Baboons were injected intradermally in the inguinal fold with respectively 6.25 mg (500 μL), 12.5 mg (500 μL) or 25 mg (1 mL) of clinical hemin (Normosang®). A non-treated baboon has served as control.
Inguinal lymph nodes were surgically removed 24 hours after intradermal injection. Single-cell suspensions for flow cytometry analysis were prepared by enzymatic lymph node disaggregation with Collagenase D (Sigma-Aldricht). […]

[4] = after CoPP intradermal injection

| Compound | diabetes development (Rip-OVA^high mice) | HO-1 expression in THP-1 cells [2] | protection against EAE (clinical score) (C57BL/6 mice) | effect on T1D (NOD mice) | also measured |
| --- | --- | --- | --- | --- | --- |
| O=C(O)CCCCCCC1C(=O)NC(=O)N1CCC(O)C1CCCCC1 (stereo not shown) [BW245c] | – | – | – | – | effect on MoDC recruitment (HO-1^+ MoDCs): did not affect |
| C=CC1=C(C)c2cc3[n-]c(cc4nc(cc5[n-]c(cc1n2)c(C)c5CCC(=O)[O-])C(CCC(=O)[O-])=C4C)c(C)c3C=C.[Co+2].[H+].[H+] [CoPP, Cobalt protoporphyrin] | protection was not observed | dose-dependently expressed HO-1 | not sufficient to tolerize against EAE | inhibit T1D in NOD mice | duration of HO-1 induction (HO-1 [1]; [4]): at least 72 hours; earliest time HO-1 induction observed (HO-1 [1]; [4]): ≤ 24 h; localisation of HO-1 induction (HO-1 [1]; intradermal injection): restricted to the draining LNs; increase of HO-1 expression in MHC-II+ cells in draining lymph nodes (HO-1 [1]; intradermal injection, RIP-OVAhigh mice): 5.8 fold; MOG-specific CD4+ T-cell proliferation capacity (C57BL/6 mice; vs untreated mice): same proliferation capacity |
| [C-]#[O+] [CO, carbon monoxide] | – | – | – | inhibit T1D in NOD mice | – |
| protoporphyrin IX containing a ferric iron ion (Heme B) with a chloride ligand [hemin] | – | dose-dependently expressed HO-1 | – | – | HO-1 expression in human MHC-II+CD11clowCD14+ cells (Human PBMC): induced highest HO-1 expression; frequency of HO-1+ cells in draining LN (HO-1 [3]): dose-dependently increased |
| ovalbumin | protection was not observed | – | – | – | – |
| MOG35-55: myelin oligodendrocyte glycoprotein (MOG) 35-55 peptide, cognate antigen in EAE (MEVGWYRSPFSRVVHLYRNGK; UniProt Q61885 63-83, looked up, fragment) | – | – | protection was not observed | – | – |
